Data published in patent publication US10681909B2, “Herbicidal triazoles” (FMC Corporation, priority 2014, dated 2020).

Legend:
[1] = test system: sandbur; assay: Test E preemergence; format: in vivo, Cenchrus echinatus; details: scale 0 to 100
Text: (§1) Seeds of plant species selected from corn (Zea mays), soybean (Glycine max), lambsquarters (Chenopodium album), poinsettia, wild (wild poinsettia, Euphorbia heterophylla), pigweed, palmer (palmer pigweed, Amaranthus palmeri), waterhemp (common waterhemp, Amaranthus rudis), surinam grass (Brachiaria decumbens), crabgrass, large (large crabgrass, Digitaria sanguinalis), crabgrass, Brazilian (Brazilian crabgrass, Digitaria horizontalis), panicum, fall (fall panicum, Panicum dichotomiflorum), foxtail, giant (giant foxtail, Setaria faberii), foxtail, green (green foxtail, Setaria viridis), goosegrass (Eleusine indica), johnsongrass (Sorghum halepense), ragweed (common ragweed, Ambrosia elatior), barnyardgrass (Echinochloa crus-galli), sandbur (southern sandbur, Cenchrus echinatus), arrowleaf sida (Sida rhombifolia), ryegrass, Italian (Italian ryegrass, Lolium multiflorum), dayflower, VA (Virginia dayflower, Commelina virginica), field bindweed (Convolvulus arvensis), cocklebur (common cocklebur, Xanthium strumarium), morningglory (Ipomoea coccinea), nightshade (eastern black nightshade, Solanum ptycanthum), kochia (Kochia scoparia), nutsedge, yellow (yellow nutsedge, Cyperus esculentus), smartweed (ladysthumb smartweed, Polygonum persicaria), velvetleaf (Abutilon theophrasti), horseweed (Conyza canadensis), and beggarticks (hairy beggarticks, Bidens pilosa), were planted into a silt loam soil and treated preemergence with test chemicals formulated in a non-phytotoxic solvent mixture which included a surfactant.
(§2) At the same time, plants from these crop and weed species and also waterhemp_RES1, (ALS & Triazine resistant common waterhemp, Amaranthus rudis), and waterhemp_RES2, (ALS & HPPD resistant common waterhemp, Amaranthus rudis) were planted in pots containing Sunshine Redi-Earth® planting medium comprising spaghnum peat moss, vermiculite, starter nutrients and dolomitic limestone were treated with postemergence applications of test chemicals formulated in the same manner. Plants ranged in height from 2 to 18 cm for postemergence treatments (1- to 4-leaf stage). Treated plants and controls were maintained in a greenhouse for 14 to 21 d, after which time all species were compared to controls and visually evaluated. Plant response ratings, summarized in Table E, are based on a scale of 0 to 100 where 0 is no effect and 100 is complete control. A dash (-) response means no test result.

[2] = test system: ryegrass, Italian; assay: Test E postemergence; format: in vivo, Lolium multiflorum; details: scale 0 to 100
Text: as §1, §2

[3] = test system: corn; assay: Test E postemergence; format: in vivo, Zea mays; details: scale 0 to 100
Text: as §1, §2

[4] = test system: sandbur; assay: Test E postemergence; format: in vivo, Cenchrus echinatus; details: scale 0 to 100
Text: as §1, §2

[5] = test system: foxtail, giant; assay: Test E preemergence; format: in vivo, Setaria faberii; details: scale 0 to 100
Text: as §1, §2

[6] = test system: crabgrass, Brazilian; assay: Test E preemergence; format: in vivo, Digitaria horizontalis; details: Brazil, scale 0 to 100
Text: as §1, §2

[7] = test system: morningglory; assay: Test E preemergence; format: in vivo, Ipomoea coccinea; details: scale 0 to 100
Text: as §1, §2

[8] = test system: panicum, fall; assay: Test E postemergence; format: in vivo, Panicum dichotomiflorum; details: scale 0 to 100
Text: as §1, §2

[9] = test system: morningglory; assay: Test C preemergence; format: in vivo, Ipomoea coccinea; details: for Plant response rating (scale of 0 to 100 where 0 is no effect and 100 is complete control): Morningglory, preemergence; for Morningglory plant response rating (0 to 100): Preemergence, visual rating after 13 to 15 d
Text: Seeds of plant species selected from blackgrass (Alopecurus myosuroides), ryegrass, Italian (Italian ryegrass, Lolium multiflorum), wheat (winter wheat, Triticum aestivum), galium (catchweed bedstraw, Galium aparine), corn (Zea mays), crabgrass, large (large crabgrass, Digitaria sanguinalis), foxtail, giant, (giant foxtail, Setaria faberii), johnsongrass (Sorghum halepense), lambsquarters (Chenopodium album), morningglory (Ipomoea coccinea), nutsedge, yellow (yellow nutsedge, Cyperus esculentus), pigweed (Amaranthus retroflexus), ragweed (common ragweed, Ambrosia elatior), soybean (Glycine max), barnyardgrass (Echinochloa crus-galli), oilseed rape (Brassica napus), waterhemp (common waterhemp, Amaranthus rudis), and velvetleaf (Abutilon theophrasti) were planted into a blend of loam soil and sand and treated preemergence with test chemicals formulated in a non-phytotoxic solvent mixture which included a surfactant. At the same time, plants selected from these crop and weed species and also chickweed (common chickweed, Stellaria media), oat, wild (wild oat, Avena fatua), and kochia (Kochia scoparia), were planted in pots containing Sunshine Redi-Earth® planting medium comprising spaghnum peat moss, vermiculite, starter nutrients and dolomitic limestone and treated with postemergence applications of test chemicals formulated in the same manner. Plants ranged in height from 2 to 18 cm (1- to 4-leaf stage) for postemergence treatments. […] A dash (-) response means no test result.

[10] = test system: beggarticks; assay: Test E preemergence; format: in vivo, Bidens pilosa; details: scale 0 to 100
Text: as §1, §2

[11] = test system: barnyardgrass; assay: Test E postemergence; format: in vivo, Echinochloa crus-galli; details: scale 0 to 100
Text: as §1, §2

[12] = test system: surinam grass; assay: Test E preemergence; format: in vivo, Brachiaria decumbens; details: scale 0 to 100
Text: as §1, §2

[13] = test system: kochia; assay: Test E postemergence; format: in vivo, Kochia scoparia; details: scale 0 to 100
Text: as §1, §2

[14] = test system: kochia; assay: Test E preemergence; format: in vivo, Kochia scoparia; details: scale 0 to 100
Text: as §1, §2

[15] = test system: pigweed, palmer; assay: Test E postemergence; format: in vivo, Amaranthus palmeri; details: scale 0 to 100
Text: as §1, §2

[16] = test system: barnyardgrass; assay: Test E preemergence; format: in vivo, Echinochloa crus-galli; details: scale 0 to 100
Text: as §1, §2

Fc1ccc(-c2nc(OCC(F)(F)F)n(Cc3ccnc(C(F)(F)F)c3)n2)cc1 [Compound 30]
Plant response rating ([1]; 31 g ai/ha): 35
Plant response rating ([1]; 62 g ai/ha): 65
Plant response rating ([1]; 125 g ai/ha): 90
Plant response rating ([1]; 250 g ai/ha): 95
Plant response rating ([2]; 31 g ai/ha): 25
Plant response rating ([2]; 62 g ai/ha): 25
Plant response rating ([2]; 125 g ai/ha): 40
Plant response rating ([2]; 250 g ai/ha): 50
Plant response rating ([3]; 31 g ai/ha): 10
Plant response rating ([3]; 62 g ai/ha): 20
Plant response rating ([3]; 125 g ai/ha): 20
Plant response rating ([3]; 250 g ai/ha): 30
Plant response rating ([4]; 31 g ai/ha): 20
Plant response rating ([4]; 62 g ai/ha): 30
Plant response rating ([4]; 125 g ai/ha): 30
Plant response rating ([4]; 250 g ai/ha): 35
Plant response rating ([5]; 31 g ai/ha): 95
Plant response rating ([5]; 62 g ai/ha): 98
Plant response rating ([5]; 125 g ai/ha): 98
Plant response rating ([5]; 250 g ai/ha): 100
Plant response rating ([6]; 31 g ai/ha): 90
Plant response rating ([6]; 62 g ai/ha): 100
Plant response rating ([6]; 125 g ai/ha): 100
Plant response rating ([6]; 250 g ai/ha): 100
Plant response rating ([7]; 31 g ai/ha): 25
Plant response rating ([7]; 62 g ai/ha): 15
Plant response rating ([7]; 125 g ai/ha): 15
Plant response rating ([7]; 250 g ai/ha): 65
Plant response rating ([8]; 31 g ai/ha): 20
Plant response rating ([8]; 62 g ai/ha): 30
Plant response rating ([8]; 125 g ai/ha): 35
Plant response rating ([8]; 250 g ai/ha): 30
Plant response rating (scale of 0 to 100 where 0 is no effect and 100 is complete control) ([9]; 125 g ai/ha): 60
Plant response rating (scale of 0 to 100 where 0 is no effect and 100 is complete control) ([9]; 250 g ai/ha): 90
Morningglory plant response rating (0 to 100) ([9]; 31 g ai/ha): 35
Morningglory plant response rating (0 to 100) ([9]; 62 g ai/ha): 35
Plant response rating ([10]; 31 g ai/ha): 0
Plant response rating ([10]; 62 g ai/ha): 10
Plant response rating ([10]; 125 g ai/ha): 20
Plant response rating ([10]; 250 g ai/ha): 50
Plant response rating ([11]; 31 g ai/ha): 30
Plant response rating ([11]; 62 g ai/ha): 50
Plant response rating ([11]; 125 g ai/ha): 90
Plant response rating ([11]; 250 g ai/ha): 100
Plant response rating ([12]; 31 g ai/ha): 15
Plant response rating ([12]; 62 g ai/ha): 20
Plant response rating ([12]; 125 g ai/ha): 50
Plant response rating ([12]; 250 g ai/ha): 70
Plant response rating ([13]; 31 g ai/ha): 90
Plant response rating ([13]; 62 g ai/ha): 90
Plant response rating ([13]; 125 g ai/ha): 100
Plant response rating ([13]; 250 g ai/ha): 90
Plant response rating ([14]; 31 g ai/ha): 90
Plant response rating ([14]; 62 g ai/ha): 100
Plant response rating ([14]; 125 g ai/ha): 100
Plant response rating ([14]; 250 g ai/ha): 100
Plant response rating ([15]; 31 g ai/ha): 95
Plant response rating ([15]; 62 g ai/ha): 100
Plant response rating ([15]; 125 g ai/ha): 100
Plant response rating ([15]; 250 g ai/ha): 100
Plant response rating ([16]; 31 g ai/ha): 20
Plant response rating ([16]; 62 g ai/ha): 70
Plant response rating ([16]; 125 g ai/ha): 75
Plant response rating ([16]; 250 g ai/ha): 95
